Common to all, as to type: cell-based, human
Test [1] concerns MDA-MB-231. The experiment in a line: Cell viability (EZ-Cytox). To be noted: Baf A 50 nM or Tz 20 μg mL^−1; 6, 24 and 48 hours. The method, then:
(§1) Each cell line was preincubated in 96 wells at 5×10^4 cells per well in a CO2 incubator (37° C., 5% CO2, 2-24 hours). […] Each well was treated with 10 μL of EZ-Cytox (DoGen Bio, Korea), followed by further incubation for at least 1 hour. Thereafter, UV-vis absorbance at 450 nm was recorded.

Test [2] has as its system BT-474. The experiment in a line: Cell viability (EZ-Cytox). To be noted: Baf A 50 nM or Tz 20 μg mL^−1; 6, 24 and 48 hours. The method, then:
as §1

For test [3], the system named is BT-474. The experiment in a line: LC3 nanoplasmonic biosensor analysis of cell lysates of BT-474 cells. To be noted: 12 hours. As to the method:
(§2) Each cell line was cultured in a 10-cm dish under appropriate conditions before cell lysate preparation. […] Caov-3 cells were treated with bafilomycin A1 (1 μM) and allowed to starve for 24 to 48 hours before adding a cytosolic LC3 removal reagent. […] Pellet cells were then washed with ice-cold PBS and incubated for 15 minutes with RIPA lysis buffer and inhibitors (Halt™ Protease and Phosphatase Inhibitor Cocktail). Thereafter, sonication and centrifugation were repeated to afford a cell lysate at a final concentration of 1.6×10^6 cells/mL.
Cleanly washed microscope coverslip slides were pretreated with 10% (v/v) APTES for 1 hour, and then drop-coated with 10 μL of a diluted immuno-AuNR solution (OD: about 0.05). A closed water-bath microfluidic detection chamber including two coverslip slides with a gasket interposed therebetween was assembled and securely fixed for sample incubation and biosensing (FIG. 1). The detection chamber was then mounted on an automated dark-field microscope stage and a syringe pump was connected to the inlet of the detection chamber. Unbound immunogold on the surface of the coverslip slides was removed using ultrapure water at a flow rate of 100 μL min^−1 for 1 hour, followed by treatment with 1 mL of a 0.2 M ethanolamine solution for 30 minutes to inactivate unreacted functional groups. […]
The LSPR wavelength of each immunogold was recorded three times throughout the experiment: 1) before LC3 sample injection, 2) after LC3 sample incubation, and 3) after PEBP1 treatment. The LSPR wavelength of each AuNR stabilized on the bottom coverslip slide was rapidly recorded with an imaging microscope system (SERA, NOST, Seoul, Korea). […] The LSPR mapping results associated with the dark-field images were visualized on a monitor with RAON computer software (NOST, Seoul, Korea), and the plasmon shift (Δλmax) of each LSPR wavelength was calculated using OriginPro 9 software.

Test [4] deals with Caov-3 cell line. The experiment in a line: LC3 nanoplasmonic biosensor analysis of cell lysates of Caov-3 cells. As to the method: Each cell line was cultured in a 10-cm dish under appropriate conditions before cell lysate preparation. […] […] […] Pellet cells were then washed with ice-cold PBS and incubated for 15 minutes with RIPA lysis buffer and inhibitors (Halt™ Protease and Phosphatase Inhibitor Cocktail). Thereafter, sonication and centrifugation were repeated to afford a cell lysate at a final concentration of 1.6×10^6 cells/mL.
Cleanly washed microscope coverslip slides were pretreated with 10% (v/v) APTES for 1 hour, and then drop-coated with 10 μL of a diluted immuno-AuNR solution (OD: about 0.05). A closed water-bath microfluidic detection chamber including two coverslip slides with a gasket interposed therebetween was assembled and securely fixed for sample incubation and biosensing (FIG. 1). The detection chamber was then mounted on an automated dark-field microscope stage and a syringe pump was connected to the inlet of the detection chamber. Unbound immunogold on the surface of the coverslip slides was removed using ultrapure water at a flow rate of 100 μL min^−1 for 1 hour, followed by treatment with 1 mL of a 0.2 M ethanolamine solution for 30 minutes to inactivate unreacted functional groups. Thereafter, at least 10 μL of LC3 sample and PEBP1 (2 μg mL^−1) were injected into the chamber and incubated for 4 hours and 30 minutes, respectively, and contaminants were washed with ultrapure water before biosensing.
The LSPR wavelength of each immunogold was recorded three times throughout the experiment: 1) before LC3 sample injection, 2) after LC3 sample incubation, and 3) after PEBP1 treatment. The LSPR wavelength of each AuNR stabilized on the bottom coverslip slide was rapidly recorded with an imaging microscope system (SERA, NOST, Seoul, Korea). An automated surface scanning and imaging module with a high-resolution EMCCD detector (888, iXon Life, Oxford Instrument, Belfast, Northern Ireland) was connected to large-area (130×130 μm) computer-assisted high-speed LSPR mapping through a single click. The LSPR mapping results associated with the dark-field images were visualized on a monitor with RAON computer software (NOST, Seoul, Korea), and the plasmon shift (Δλmax) of each LSPR wavelength was calculated using OriginPro 9 software.
Then, the LSPR peak shift of the Caov-3 cell line treated with bafilomycin A or not treated therewith was represented in the form of a cumulative bar graph, as shown in FIG. 13. Here, the regular and hatched boxes represent the measured first and second LSPR shifts, respectively, and error bars correspond to the standard errors measured in 60 immuno-AuNRs.

Test [5] has as its system Caov-3 cell line. The experiment in a line: LC3 Western blotting and LC3 ELISA of Caov-3 cell lysates. To be noted: Baf A for 20 minutes and 24 hours, FIG. 14. The method, then:
as §2
The cell lysate prepared in Experimental Example 2 was quantified with a BCA assay kit (Thermo Fisher Scientific), and 40 μg thereof was loaded into each well. SDS-PAGE was conducted under conditions of 70 minutes or more, 15% gel, and 90 V. Primary (LC3B antibody, Cell Signaling) and secondary (goat anti-mouse, GenDEPOT) antibodies to LC3 were diluted 1:1000 and 1:5000, respectively, and respective antibodies to actin (anti beta-actin, AbFrontier) were also diluted 1:1000 and 1:10000. Other specific conditions were the same as the general protocol for Western blotting.
(In western blotting, separated proteins are transferred to a membrane and probed.)

The subject of test [6] is MDA-MB-231. The experiment in a line: LC3 nanoplasmonic biosensor analysis of cell lysates of MDA-MB-231 cells. To be noted: 12 hours.
[7] abbreviates: before the additional treatment (read as 50 nM Baf A alone).

In the case of `CO/C1=C\C(C)=C\[C@@H](C)[C@@H](O)[C@@H](C)C/C(C)=C/C=C/[C@H](OC)[C@@H]([C@@H](C)[C@@H](O)[C@H](C)[C@@]2(O)C[C@@H](O)[C@H](C)[C@@H](C(C)C)O2)OC1=O` [Baf A, bafilomycin A], the “cell viability over time” value with MDA-MB-231 [1] and with BT-474 [2] was “gradual cell death” throughout. The “change of first-step LSPR Δλmax and LC3-II ratio” value with BT-474 [3] (50 nM Baf A, versus no Baf A) was “greater first-step LSPR Δλmax and an increased LC3-II ratio”; in the test with MDA-MB-231 [6] (50 nM Baf A, versus no Baf A), “greater first-step LSPR Δλmax and an increased LC3-II ratio”. Further, the “LC3-II ratio (Equation 1)” value in the test with BT-474 [3] (setting [7]) is listed as 68.1%. For the same compound, the “first-step LSPR Δλmax” value in the test on BT-474 [3] (setting [7]) was determined as 7.23±0.33 nm; with MDA-MB-231 [6] (setting [7]), 10.40±0.35 nm. For the same compound, the “LC3-II composition (Equation 1)” value was 6.78% with Caov-3 cell line [4] (Baf A for 20 minutes) and 78.8% in the test on Caov-3 cell line [4] (Baf A for 24 hours). Further, the “first LSPR peak shift” value with Caov-3 cell line [4] (Baf A for 24 hours) is on record as 10.2±0.25 nm. The “second LSPR peak shift” value in the test on Caov-3 cell line [4] (Baf A for 24 hours, after PEBP1) worked out at 1.53±0.29 nm. In the test with Caov-3 cell line [5], the “LC3 expression by Western blotting and ELISA” value was “LC3-II accumulation was induced”.

Source of the values: patent publication US20230236169A1, “NANOPLASMONIC BIOSENSOR FOR DETECTING AUTOPHAGY MARKER WITH HIGH SENSITIVITY, AND METHOD OF DETECTING AUTOPHAGY MARKER AND METHOD OF SCREENING DRUG CANDIDATE USING SAME” (KOREA UNIVERSITY RESEARCH AND BUSINESS FOUNDATION, priority 2021, published 2023).
